# Data as given in US7670997B2, “Ophthalmic compositions comprising a branched, glycerol monoalkyl compound and a fatty acid monoester” (Bausch & Lomb Incorporated, priority 2006, dated 2010).
# Read-outs that look alike come from different tables or passages of the source.
# Legend:
# [1] = for Foam Height Time = 0 min: after 10 seconds of vigorous shaking; for Foam Height Time = 30 min: after 30 minutes of standing
# Protocol: In such a test, 50 mL of the solution being tested is placed in a 100 mL graduated cylinder (2.6 cm in diameter). The foam height is measured after 10 seconds of vigorous shaking of the cylinder containing the test solution. Foam height after 30 minutes of standing is also measured to evaluate foam draining propensity of the test solutions.
# [2] = tested on: Gram-positive bacteria associated with perspiration odor; details: Sensiva product literature, Schulke & Mayr; cited from earlier work
# [3] = octoxyglycerin 0.05 ppm in Table 1 formulation
# [4] = octoxyglycerin 0.10 ppm in Table 1 formulation
# [5] = octoxyglycerin 0.25 ppm in Table 1 formulation
# [6] = octoxyglycerin 0.50 ppm in Table 1 formulation
# [7] = octoxyglycerin 0.75 ppm in Table 1 formulation
# [8] = octoxyglycerin 1.00 ppm in Table 1 formulation
# [9] = octoxyglycerin 2.00 ppm in Table 1 formulation
structure (smiles),measurement,setting,value
"CCCCC(CC)COCC(O)CO (stereo not shown) [octoxyglycerin, 3-[(2-ethylhexyl)oxy]-1,2-propanediol]",control of foaming,"[1]; amounts over 0.05 ppm, multi-purpose lens care products with over 3.0 wt % foaming surfactants (Pluronic F127, Tetronic 1107)",effective control of foaming
same,Foam Height Time = 0 min,[1]; [3],3.8 ± 0.2 cm
same,Foam Height Time = 30 min,[1]; [3],3.0 ± 0.3 cm
same,Foam Height Time = 0 min,[1]; [4],2.6 ± 0.4 cm
same,Foam Height Time = 30 min,[1]; [4],2.0 ± 0.2 cm
same,Foam Height Time = 0 min,[1]; [5],1.3 ± 0.2 cm
same,Foam Height Time = 30 min,[1]; [5],0.8 ± 0.2 cm
same,Foam Height Time = 0 min,[1]; [6],0.7 ± 0.2 cm
same,Foam Height Time = 30 min,[1]; [6],0.4 ± 0.1 cm
same,Foam Height Time = 0 min,[1]; [7],0.3 ± 0.1 cm
same,Foam Height Time = 30 min,[1]; [7],0.2 ± 0.1 cm
same,Foam Height Time = 0 min,[1]; [8],0.1 ± 0.0 cm
same,Foam Height Time = 30 min,[1]; [8],0.0 ± 0.0 cm
same,Foam Height Time = 0 min,[1]; [9],0.1 ± 0.0 cm
same,Foam Height Time = 30 min,[1]; [9],0.0 ± 0.0 cm
same,antimicrobial activity against Gram-positive bacteria,[2],exhibit antimicrobial activity
